Experimental data reported in patent publication US20030216378A1, “Azepino[4,5-b]pyrano[3,2-e]indoles” (priority 2000, published 2003).

| melting point | SMILES |
| --- | --- |
| 112 to 114 °C | Cn1c2c(c3c4c(ccc31)OCC=C4)CCN(Cc1ccccc1)CC2 [Example 1, 10-Benzyl-7-methyl-7,8,9,10,11,12-hexahydro-3H-azepino[4,5-]pyrano[3,2-e]indole] |
| 185 to 187 °C | O=C(O)Cn1c2c(c3c4c(ccc31)OCC=C4)CCN(Cc1ccccc1)CC2 [Example 8] |

The remaining lines, values behind:

| SMILES | melting point |
| --- | --- |
| C1=Cc2c(ccc3[nH]c4c(c23)CCN(Cc2ccccc2)CC4)OC1 | 157 to 160 °C |
| Cl.O=C(Cn1c2c(c3c4c(ccc31)OCCC4)CCNCC2)Nc1ccccc1 | > 250 °C (dec.) |
| Cl.c1cc2[nH]c3c(c2c2c1OCCC2)CCNCC3 | > 283 °C (dec.) |
| O=C(Cn1c2c(c3c4c(ccc31)OCC=C4)CCN(Cc1ccccc1)CC2)Nc1ccccc1 [Example 9, 2-(10-benzyl-3,8,9,10,11,12-hexahydro-7H-azepino[4.5-b]pyrano[3,2-e]indol-7-yl)-N-phenylacetamide] | 134 to 136 °C |
